Assays:
Assay in all cases: relative viability (nuclei count vs DMSO), 5 days (fraction); higher = more cells survive
MLN4924 + Linsitinib = compound: NS(=O)(=O)OC[C@@H]1C[C@@H](n2ccc3c(N[C@H]4CCc5ccccc54)ncnc32)C[C@@H]1O [MLN4924] + C[C@]1(O)C[C@@H](c2nc(-c3ccc4ccc(-c5ccccc5)nc4c3)c3c(N)nccn32)C1 [Linsitinib] (partner 1 µM)
Method in brief: (§1)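 Values are medians from duplicate plates. Each reflects relative viability, defined as the nuclei count of treated wells over that of vehicle wells. Lung cancer cell lines in 1536-well plates were pin-tool dosed one day after seeding with one drug alone or with a fixed anchor-drug dose plus five library-drug doses (not always all listed) in √10 steps, then fixed, stained and imaged at 4× after 5 days.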

GSK126 + Linsitinib = compound: CC[C@H](C)N1C=C(C2=C(C=C(C=C21)C3=CN=C(C=C3)N4CCNCC4)C(=O)NCC5=C(C=C(NC5=O)C)C)C [GSK126] + C[C@]1(O)C[C@@H](c2nc(-c3ccc4ccc(-c5ccccc5)nc4c3)c3c(N)nccn32)C1 [Linsitinib] (partner 1 µM)
Method in brief: as §1

GSK126 + Palbociclib = compound: CC[C@H](C)N1C=C(C2=C(C=C(C=C21)C3=CN=C(C=C3)N4CCNCC4)C(=O)NCC5=C(C=C(NC5=O)C)C)C [GSK126] + CC(=O)c1c(C)c2cnc(Nc3ccc(N4CCNCC4)cn3)nc2n(C2CCCC2)c1=O [Palbociclib] (partner 0.5 µM)
Method in brief: as §1

GSK126 + Vorinostat = compound: CC[C@H](C)N1C=C(C2=C(C=C(C=C21)C3=CN=C(C=C3)N4CCNCC4)C(=O)NCC5=C(C=C(NC5=O)C)C)C [GSK126] + O=C(CCCCCCC(=O)Nc1ccccc1)NO [Vorinostat] (partner 1 µM)
Method in brief: as §1

| Cell Line | relative viability (MLN4924 + Linsitinib; first compound 0.04 µM) | relative viability (MLN4924 + Linsitinib; first compound 0.1265 µM) | relative viability (MLN4924 + Linsitinib; first compound 0.4 µM) | relative viability (MLN4924 + Linsitinib; first compound 1.265 µM) | relative viability (MLN4924 + Linsitinib; first compound 4 µM) | relative viability (GSK126 + Linsitinib; first compound 0.08 µM) | relative viability (GSK126 + Linsitinib; first compound 0.253 µM) | relative viability (GSK126 + Linsitinib; first compound 0.8 µM) | relative viability (GSK126 + Linsitinib; first compound 2.53 µM) | relative viability (GSK126 + Linsitinib; first compound 8 µM) | relative viability (GSK126 + Palbociclib; first compound 0.08 µM) | relative viability (GSK126 + Palbociclib; first compound 0.253 µM) | relative viability (GSK126 + Palbociclib; first compound 0.8 µM) | relative viability (GSK126 + Palbociclib; first compound 2.53 µM) | relative viability (GSK126 + Palbociclib; first compound 8 µM) | relative viability (GSK126 + Vorinostat; first compound 0.08 µM) | relative viability (GSK126 + Vorinostat; first compound 0.253 µM) | relative viability (GSK126 + Vorinostat; first compound 0.8 µM) | relative viability (GSK126 + Vorinostat; first compound 2.53 µM) | relative viability (GSK126 + Vorinostat; first compound 8 µM) |
| --- | --- | --- | --- | --- | --- | --- | --- | --- | --- | --- | --- | --- | --- | --- | --- | --- | --- | --- | --- | --- |
| NCI-H2009 | 0.816 | 0.36 | 0.247 | 0.143 | 0.0806 | 1.3 | 1.18 | 1.27 | 1.18 | 1.2 | 0.183 | 0.176 | 0.181 | 0.257 | 0.322 | 0.822 | 0.679 | 0.714 | 0.672 | 0.771 |
| NCI-H2405 | 1.09 | 1.12 | 0.686 | 0.246 | 0.245 | 1.02 | 0.829 | 0.876 | 1 | 0.927 | 0.586 | 0.507 | 0.537 | 0.557 | 0.523 | 1.12 | 0.933 | 1.01 | 1.05 | 1.04 |
| SK-MES-1 | 0.976 | 0.825 | 0.35 | 0.215 | 0.207 | 1.12 | 1.07 | 0.985 | 0.981 | 1.06 | 0.384 | 0.324 | 0.337 | 0.329 | 0.35 | 1.12 | 1.19 | 1.04 | 1.04 | 1.13 |
| NCI-H322M | 0.86 | 0.908 | 0.913 | 0.262 | 0.328 | 0.953 | 0.949 | 0.884 | 1.01 | 0.937 | 0.568 | 0.488 | 0.505 | 0.485 | 0.45 | 0.838 | 0.884 | 0.866 | 0.939 | 0.939 |
| NCI-H2085 | 0.868 | 0.839 | 0.577 | 0.313 | 0.235 | 0.903 | 0.774 | 1.02 | 0.89 | 1.02 | 0.477 | 0.456 | 0.466 | 0.453 | 0.47 | 0.851 | 0.813 | 0.804 | 0.841 | 0.948 |
| PC-3 [JPC-3] | 0.975 | 0.923 | 0.679 | 0.383 | 0.386 | 1.01 | 0.977 | 0.941 | 0.921 | 0.958 | 0.516 | 0.565 | 0.565 | 0.488 | 0.485 | 0.949 | 0.82 | 0.806 | 1 | 0.825 |
| NCI-H1355 | 0.875 | 0.704 | 0.789 | 0.207 | 0.211 | 0.947 | 0.872 | 0.793 | 0.637 | 0.841 | 0.446 | 0.365 | 0.417 | 0.405 | 0.413 | 0.635 | 0.612 | 0.667 | 0.602 | 0.657 |
| NCI-H838 | 0.675 | 0.283 | 0.208 | 0.161 | 0.149 | 1.12 | 0.979 | 0.952 | 0.906 | 0.866 | 0.264 | 0.223 | 0.202 | 0.212 | 0.234 | 0.747 | 0.688 | 0.659 | 0.638 | 0.69 |
| NCI-H1755 | 1.07 | 0.701 | 0.447 | 0.159 | 0.2 | 1.01 | 1.04 | 1.01 | 0.967 | 1.03 | 0.465 | 0.394 | 0.458 | 0.43 | 0.445 | 0.8 | 0.719 | 0.74 | 0.794 | 0.58 |
| NCI-H1651 | 1.13 | 0.973 | 0.431 | 0.334 | 0.135 | 1.07 | 0.815 | 0.855 | 0.972 | 1.05 | 0.493 | 0.512 | 0.515 | 0.537 | 0.514 | 0.614 | 0.548 | 0.545 | 0.6 | 0.55 |
| NCI-H650 | 0.611 | 0.604 | 0.266 | 0.186 | 0.174 | 1.11 | 0.789 | 0.934 | 0.974 | 1.13 | 0.349 | 0.315 | 0.331 | 0.322 | 0.352 | 0.482 | 0.412 | 0.411 | 0.403 | 0.487 |
| LK-2 | 0.497 | 0.46 | 0.289 | 0.198 | 0.203 | 0.397 | 0.485 | 0.626 | 0.944 | 0.352 | 0.682 | 0.657 | 0.738 | 0.558 | 0.681 | 0.239 | 0.233 | 0.411 | 0.279 | 0.298 |
| HCC-366 | 0.838 | 0.933 | 0.513 | 0.0247 | 0.0197 | 0.684 | 0.634 | 0.602 | 0.678 | 0.846 | 0.391 | 0.399 | 0.425 | 0.407 | 0.374 | 0.389 | 0.354 | 0.29 | 0.342 | 0.385 |

Reference: the supplement of paper PMC10307832
